Laboratory results from patent US6518306B1, “1,4-substitued 4,4-diaryl cyclohexanes” (SmithKline Beecham Corporation, priority 1999, dated 2003).

Tested on: TNF
Assay: Endotoxic shock models, in vivo TNF activity
Settings: endotoxic shock model; serum TNF after endotoxin injection
From the text: Two models of endotoxic shock have been utilized to determine in vivo TNF activity for the compounds of Formula (I) and (II). The protocol used in these models is described in Badger et al., EPO published Application 0 411 754 A2, Feb. 6, 1991, and in Hanna. WO 90/15534, Dec. 27, 1990.

`COc1ccc(C=O)cc1OC1CCCC1` [Example 1, 3-Cyclopentyloxy-4-methoxybenzaldehyde] was tested, and the “in vivo response in reducing serum levels of TNF induced by the injection of endotoxin” value was “positive in vivo response”.
